Reference: US4877796A (priority 1986, dated 1989)
Like-named read-outs stand apart in the source and are kept apart here.

Test system: disturbances of the cardiac rhythm (aconitine) in the rat
Assay type: in vivo
Conditions: for Precentage of the protraction of time: aconitine perfusion five minutes after administration, compared with controls

Compound: CN1CCC[C@H]2CCC[C@@H](N(C)C(=O)Cc3ccc(Cl)c(Cl)c3)[C@@H]21 [Example 2, [4aRS(4aα,8α,8aα)](+) N-(decahydro-1-methyl-8-quinolinyl)-3,4-dichloro-N-methyl-benzene-acetamide]
- Precentage of the protraction of time (2.5 mg/kg intravenously): 16%
- Precentage of the protraction of time (5 mg/kg intravenously): 28%
- Precentage of the protraction of time (10 mg/kg intravenously): 43%
- antiarrythmic properties (in words) (intravenously, aconitine model): good antiarrythmic properties
